Source: patent US7612071B2, “Compositions and methods employing aminopterin” (Syntrix Biosystems, Inc., priority 2004, dated 2009)
Like-named read-outs stand apart in the source and are kept apart here.

What was measured:
[1] = tested on: T-lineage acute lymphoblastic leukemia (ALL); settings: for Therapeutic Index / Toxicity Component: Antifolate dose with same toxicity as MTX at 100 mg/m^2/wk: T-lineage ALL; for Therapeutic Component: Antifolate dose / Therapeutic Component: Percentage effective (complete remission or stable disease): peripheral blasts and bone marrow infiltrates in T-lineage ALL, n=7; for Therapeutic Component: Percentage effective (complete remission or stable disease): AMT 4 mg/m^2/wk, MTX >5000 mg/m^2/wk in the same patients
Experimental: Specifically, a clinical trial was performed in human adult and pediatric patients having T-lineage acute lymphoblastic leukemia (ALL) that was refractory to therapy or that had relapsed (see Table IV). The disease manifestations that were monitored were peripheral blasts and bone marrow infiltrates. The toxicity manifestations that were monitored were mucositis, neutropenia, thrombocytopenia and myelosuppression.

[2] = mice, 4 weekly ip doses (aminopterin 0.03 mg/kg, methotrexate 0.3 mg/kg)
[3] = Mean intrapatient coefficient of variation of oral bioavailability; assay type: in vivo; settings: human, plasma, 2 mg/m2; AMT 2 mg/m^2 PO, n=5
Excerpt: The term “intrapatient coefficient of variation of oral bioavailability” as used herein refers to the coefficient of variation of oral bioavailability of two or more antifolate doses given to the same patient. Specifically, it is the standard deviation of oral bioavailability of the two or more antifolate doses in the same patient divided by the intrapatient oral bioavailability, expressed as a percent.
The term “mean intrapatient coefficient of variation of oral bioavailability” as used herein refers to the average intrapatient coefficient of variation of oral bioavailability for two or more patients.
The intrapatient oral bioavailability and standard deviation of the oral bioavailability were determined among the consecutive doses in a given patient, and the intrapatient coefficient of variation of oral bioavailability calculated for each patient by dividing the standard deviation by the intrapatient oral bioavailability.

For `Nc1nc(N)c2nc(CNc3ccc(C(=O)N[C@@H](CCC(=O)O)C(=O)O)cc3)cnc2n1` [AMT], the “Therapeutic Index” value ([1]; Mucositis vs peripheral blasts/bone marrow infiltrates) was 1, the “Toxicity Component: Antifolate dose with same toxicity as MTX at 100 mg/m^2/wk” value (“Toxicity Component: Antifolate dose” for short) ([1]; Mucositis) was 4 mg/m^2/wk and the “Therapeutic Index” value ([1]; Myelosuppression) was 1. The “Toxicity Component: Antifolate dose” value ([1]; Myelosuppression) was 4 mg/m^2/wk, the “Therapeutic Index” value ([1]; Neutropenia) was 1 and the “Toxicity Component: Antifolate dose” value ([1]; Neutropenia) was 4 mg/m^2/wk. For the same molecule, the “Therapeutic Index” value ([1]; Thrombocytopenia) was 1, the “Toxicity Component: Antifolate dose” value ([1]; Thrombocytopenia) was 4 mg/m^2/wk and the “Therapeutic Component: Antifolate dose” value [1] was 4 mg/m^2/wk:. For the same molecule, the “Therapeutic Component: Percentage effective (complete remission or stable disease)” value [1] was 43% complete, the “Therapeutic Component: Percentage effective (complete remission or stable disease)” value ([1]; listed as aminopterin) was 43% and the “Therapeutic Component: Antifolate dose” value ([1]; listed as aminopterin) was 4 mg/m^2/wk. For the same molecule, the “Therapeutic index of aminopterin relative to corresponding therapeutic index of methotrexate” value ([1]; peripheral blasts in T-lineage ALL and mucositis) was “greater than 50 fold”, the “antifolate content in brain parenchyma, aminopterin arm vs methotrexate arm” value ([2]; days 1, 12 and 22) was “significantly less antifolate” and the “antifolate content in liver, aminopterin vs methotrexate” value ([2]; days 1 and 22 after last dose) was “no different”. For the same molecule, the Mean intrapatient coefficient of variation of oral bioavailability [3] was 25%.
